Reference: article PMC5738580, “Design, Synthesis, and Cytotoxicity Evaluation of Novel Griseofulvin Analogues with Improved Water Solubility” (International Journal of Medicinal Chemistry, 2017)
In brackets after ≈: the same amount, converted by molar mass. Read-outs that look alike come from different tables or passages of the source.

Tests used:
[1] = Equilibrium solubility in buffer solutions (UV); format: physicochemical; conditions: thermodynamic from solid, 37 °C, read-out: Mean solubility ± SD
Protocol: UV measurements were performed on single beam spectrophotometer (Jenway, model 6305, UK). Equilibrium solubility was performed through using digital precise shaking water bath (DAIHAN Scientific Co., model WSB-45, Republic of Korea).
A powdered sample (20 mg), of each of the tested compounds [3, 5–10, and griseofulvin 1], was accurately weighed and dissolved in 100 ml of methanol to prepare 200 μg/ml stock solution. Compound solutions (20 μg/ml) in the investigated media (buffer solutions of pH 1.2 and 6.8) were prepared from stock solution after appropriate dilution. The prepared solutions were scanned in the UV-Vis region (200–800 nm) to determine the wavelength of maximum absorption (λmax) in each medium.
Solutions containing different concentrations of the investigated compound were prepared from stock solution after appropriate dilution with the investigated buffer solutions. The UV absorbance of the prepared sample solutions was measured at λmax of the investigated compound using the investigated buffer solution as a reference solution (blank). The determined absorbance values were plotted versus the corresponding concentrations to construct the standard calibration curves.
Equilibrium solubility of each of the tested compounds was determined by placing an excess amount of the compound in stoppered glass volumetric flask containing 10 ml of the investigated buffer solution. The solutions were shaken at a rate of (40 ± 2) stroke/minute in a thermostatically controlled water bath at 37 ± 0.5°C for 24 hours to ensure equilibrium. Samples of 2 ml were withdrawn from each test solution, filtered immediately, and assayed spectrophotometrically at the determined λmax of the investigated compound.

HCT116 cells [2] = assay: SRB cytotoxicity assay, HCT116; format: cell-based, human; conditions: for IC50: Homo sapiens, HCT-116, read-out: IC50 against HCT116
Protocol: (§1) Breast carcinoma MCF-7 and colorectal cancer HCT116 cell lines were used in this study. Cancer cell lines were obtained frozen in liquid nitrogen (−180°C) from the American Type Culture Collection (ATCC). The tumor cell line was maintained by serial subculturing in RPMI 1640 media containing 10% […] at the National Cancer Institute, Cairo, Egypt.
(§2) Cytotoxicity assay was carried out according to the reported literature, where the sensitivity of the MCF-7 and HCT116 cell lines to the tested compounds and their combination was determined by the SRB assay. In brief, cells were seeded at a density of 3 × 10^3 cells/well in 96-well microtiter plates. Cells were left to attach for 24 hours before incubation with drugs. Next, they were treated with different concentrations of the tested compounds (10, 20, 30, 40, 50, and 100 μM).
(§3) Control cells containing 200 μl/well of DMSO (0.1% v/v) were used similarly. At the end of incubation, cells were fixed with 20% trichloroacetic acid (TCA), stained with 0.4% Sulforhodamine B (SRB), and rinsed with 1% acetic acid. The bound protein stain was solubilized with Tris base (10 mM, pH 10.5) and the optical density (OD) of each well was measured spectrophotometrically at 570 nm using ELISA microplate reader (TECAN, Sunrise^TM, Germany). The fraction of cell survival was calculated as follows.
(§4) Survival fraction = OD treated/OD control. […] Each experiment was repeated 3 times.

MCF-7 cells [3] = assay: SRB cytotoxicity assay, MCF-7; format: cell-based; conditions: Homo sapiens, MCF7, read-out: IC50 against MCF-7
Protocol: as §1, §2, §3, §4

centrosomal clustering = test system: centrosomal clustering; design: method as in PMID 22191585, PMID 19402668; conditions: cited from earlier work
MCF-7 cells [4] = assay: Apoptosis, Annexin V-FITC/PI flow cytometry; format: cell-based, human; conditions: MCF-7, 21.5 μM, 48 hrs
Protocol: In order to study the effect of compound 9 on apoptosis, MCF-7 cells were treated with compound 9 (21.5 μM) for 48 hrs and harvested for fluorescence microscopic and flow cytometric analysis of Annexin V-FITC/propidium iodide (PI) staining. […] The percentage of apoptotic cells was 2.65% in control untreated MCF-7 cells and 31.75% after treatment with compound 9.
In brief, untreated and treated MCF-7 cells (21.5 μM of 9) were harvested and resuspended in calcium buffer at a concentration of 1 × 10^6 cells/ml. Annexin V-FITC (10 μl) was added to 100 μl of cells. The tubes were incubated for 20 min in the dark. The cells were then washed with calcium buffer and propidium iodide (10 μl) was added to each tube and incubated for at least 10 min on ice. Samples were analyzed by FACScan flow cytometer (Becton-Dickinson, San Jose, CA, USA) using CellQuest software (Becton-Dickinson, San Jose, CA).

HCT116 cells [5] = assay: Combination of compound 9 with 5-fluorouracil (SRB, combination index); format: cell-based, human
Protocol: (§5) Estrogen-dependent breast cancer represents 70% of all types of breast cancer. […] Combination therapy is used in order to prevent resistance or recurrence. […] Similar study was performed for evaluation of combination effect of compound 9 with 5-fluorouracil on HCT116 cells proliferation (Figure 1).
as §2
(§6) CI was employed to determine whether the compounds interacted synergistically, additively, or antagonistically. […] If “CI” is less than 1, the effect of combination is synergistic, whereas if CI = 1 or >1, the effect is additive or antagonistic, respectively.

MCF-7 cells [6] = assay: Combination of compound 9 with tamoxifen (SRB, combination index); format: cell-based, human
Protocol: as §5, §2, §6

[7] = buffer solution pH 1.2, simulated gastric fluid, pH 1.2 buffer solution
[8] = buffer solution pH 6.8, aqueous buffer, pH 6.8 buffer solution

| Structure (SMILES) | solubility at 24 h [1, 7] | solubility at 24 h [1, 8] | IC50 (HCT116 cells [2]) | IC50 (MCF-7 cells [3]) | increase in activity as a centrosome clustering inhibitor compared to 1 (centrosomal clustering) | increase in activity over 5-fluorouracil against HCT116 (HCT116 cells [2]) | percentage of apoptotic cells (MCF-7 cells [4]) | combination index (CI) (HCT116 cells [5]; half of IC50 of compound 9 + quarter of IC50 of 5-fluorouracil) | combination index (CI) (HCT116 cells [5]; quarter of IC50 of compound 9 + half of IC50 of 5-fluorouracil) | combination index (CI) (MCF-7 cells [6]; half of IC50 of compound 9 + quarter of IC50 of tamoxifen) | combination index (CI) (MCF-7 cells [6]; quarter of IC50 of compound 9 + half of IC50 of tamoxifen) |
| --- | --- | --- | --- | --- | --- | --- | --- | --- | --- | --- | --- |
| COc1cc(OC)c2c(c1Cl)O[C@]1(C2=O)C(OCc2ccccc2)=CC(=NOCC(=O)O)C[C@H]1C (mixture of isomers) [Compound 5, 2-(((E/Z)-[(2S,6′R)2′-Benzyloxy-7-chloro-4,6-dimethoxy-6′-methyl-3-oxo-3H-spiro[benzofuran-2,1′-cyclohex[2′]en]-4′-ylidene]amino)oxy) Acetic Acid] | 14.3 ± 0.42 µg/mL | 27.94 ± 0.27 µg/mL | > 100 µM | 20.7 µM |  |  |  |  |  |  |  |
| COC1=CC(=NNC(N)=O)C[C@@H](C)[C@]12Oc1c(Cl)c(OC)cc(OC)c1C2=O (mixture of isomers) [Compound 6, (E/Z)-2-((2S,6′R)-7-Chloro-2′,4,6-trimethoxy-6′-methyl-3-oxo-3H-spiro[benzofuran-2,1′-cyclohex[2′]en]-4′-ylidene)hydrazine-1-carboxamide] | 14.86 ± 0.12 µg/mL | 14.5 ± 0.39 µg/mL | 87.8 µM | 55.9 µM |  |  |  |  |  |  |  |
| COC1=CC(=NNC(=O)c2ccncc2)C[C@@H](C)[C@]12Oc1c(Cl)c(OC)cc(OC)c1C2=O (mixture of isomers) [Compound 8, (E/Z)-N′-((2S,6′R)-7-Chloro-2′,4,6-trimethoxy-6′-methyl-3-oxo-3H-spiro[benzofuran-2,1′-cyclohex[2′]en]-4′-ylidene)isonicotinic Acid Hydrazide] | 29.1 ± 0.72 µg/mL | 12.5 ± 0.54 µg/mL | 39.8 µM | 25.3 µM |  |  |  |  |  |  |  |
| O=c1[nH]cc(F)c(=O)[nH]1 [5-Fluorouracil, reference compound] |  |  | 19.5 µM |  |  |  |  |  |  |  |  |
| COC1=CC(=O)C[C@@H](C)[C@]12Oc1c(Cl)c(OC)cc(OC)c1C2=O [Compound 1, Griseofulvin] | 12.3 ± 0.29 µg/mL (≈ 34.9 µM) | 12.4 ± 0.26 µg/mL (≈ 35.1 µM) | 35.5 µM | 69 µM |  |  |  |  |  |  |  |
| COc1cc(OC)c2c(c1Cl)O[C@]1(C2=O)C(OCc2ccccc2)=CC(=O)C[C@H]1C [Compound 3, (2S,6′R)-2′-Benzyloxy-7-chloro-4,6-dimethoxy-6′-methyl-3H-spiro[benzofuran-2,1′-cyclohex[2′]en]-3,4′-dione, reference compound] | 11.1 ± 0.37 µg/mL (≈ 26 µM) | 11.1 ± 0.82 µg/mL (≈ 25.9 µM) | 35.8 µM | 32.8 µM | 25 fold |  |  |  |  |  |  |
| COC1=CC(=NNC(=N)N)C[C@@H](C)[C@]12Oc1c(Cl)c(OC)cc(OC)c1C2=O [Compound 7, 2-((2S,6′R)-7-Chloro-2′,4,6-trimethoxy-6′-methyl-3-oxo-3H-spiro[benzo-furan-2,1′-cyclohex[2′]en]-4′-ylidene)hydrazine-1-carboximidamide] |  |  | 85.6 µM | 54.5 µM |  |  |  |  |  |  |  |
| COc1cc(OC)c2c(c1Cl)OC1(C2=O)C(OCc2ccccc2)=CC(=NNC(N)=O)CC1C [Compound 9, 2-((2S,6′R)-2′-Benzyloxy-7-chloro-4,6-dimethoxy-6′-methyl-3-oxo-3H-spiro[benzofuran-2,1′-cyclohex[2′]en]-4′-ylidene)hydrazine-1-carboxamide] | 14 ± 0.31 µg/mL (≈ 28.7 µM) | 13.78 ± 0.07 µg/mL (≈ 28.4 µM) | 10.5 µM | 21.5 µM |  | 2 fold | 31.75% | 0.37 ± 0.07 | 0.2 ± 0.06 | 0.25 ± 0.03 | 0.17 ± 0.06 |
| COc1cc(OC)c2c(c1Cl)OC1(C2=O)C(OCc2ccccc2)=CC(=NNC(=N)N)CC1C [Compound 10, 2-((2S,6′R)-2′-Benzyloxy-7-chloro-4,6-dimethoxy-6′-methyl-3-oxo-3H-spiro[benzofuran-2,1′-cyclohex[2′]en]-4′-ylidene)hydrazine-1-carboximidamide] | 26.7 ± 0.57 µg/mL (≈ 55 µM) | 16.6 ± 0.58 µg/mL (≈ 34.2 µM) | 8.39 µM | 14.5 µM |  | 2 fold |  |  |  |  |  |
